The results in this text go back to patent US12390451B2, “Small molecule inhibitor of the JAK family of kinases” (Janssen Pharmaceutica NV, priority 2021, dated 2025).

The subject of this test is IL-12/IL-18-induced pSTAT-3 in the colon. Nature of the test: IL-12/IL-18-induced colonic pSTAT-3 response in mice after oral dosing. Type of test: in vivo, C57BL/6 mice. Particulars: Mus musculus, read-out: Percent Inhibition of colonic pSTAT-3. The text has this:
To understand the potential of local, enteric-selective JAK inhibitors to inhibit STAT signaling in colon tissue, two pharmacokinetic/pharmacodynamic (PK/PD) studies were developed. The first involved the combined intraperitoneal administration of IL-12 and IL-18 in mice which induces a systemic inflammatory response resulting in activation of the JAK/STAT pathway in colonic tissue which can be monitored by robust phosphorylation of STAT3 three hours after challenge. The second PK/PD model involves the ex vivo stimulation of mouse colon tissue with a cocktail of cytokines (IL-22, IL-6, and IFNα), measuring the inhibition of STAT3 phosphorylation after oral dosing of compound of Formula I.
The combined intraperitoneal administration of IL-12 and IL-18 induces colonic inflammation in mice (Chikano S, et al. Gut 47(6),779-786 (2000) “IL-18 and IL-12 induce intestinal inflammation and fatty liver in mice in an IFN-gamma dependent manner”; Nold-Petry C, et al. Front Immunol. 8, 1531(2017) “Gp96 Antagonist Protects in Murine-Intestinal-Inflammation”). An inflammatory response in colonic tissue can be monitored by robust phosphorylation of STAT3 three hours after challenge with IL 12/IL-18. In this non-GLP study, the effect of the orally administered compound of Formula I was evaluated on STAT3 responses in mouse colonic tissue induced by systemic dosing of both IL-12 and IL 18.
C57BL/6 mice (6 to 8 weeks old) were randomized by weight and assigned to various treatment groups for each of two studies. Mice were challenged intraperitoneally with a combination of IL-12 (250 ng) and IL-18 (1 μg). To examine the effect of compound of Formula I on IL-12/IL-18-induced pSTAT-3 response, groups of mice were orally dosed with compound of Formula I 1 hour prior to IL-12/IL-18 challenge. Three hours after IL-12/IL-18 challenge, mice were euthanized with CO2 asphyxiation, blood was collected via cardiocentesis for PK analysis, and colon tissues were collected for measuring pSTAT-3 response and drug levels. Mice dosed orally with 20% 2-hydroxypropyl-β-cyclodextrin (HP-β-CD) were used as vehicle controls. Two independent studies (S-1 and S-2) were conducted to examine the effect of compound of Formula I on IL-12/IL-18-induced colonic pSTAT-3 response in mice. […] Serum levels were measured at 30 minutes and 4 hours (terminal) after dosing. […] Colon drug levels were measured 4 hours after dosing. […] Colonic exposure of compound of Formula I increased in a dose-dependent fashion. At 25 mg/kg dose, colonic exposure of compound of Formula I was 30814.5±5552.5 ng/g and 18256.5±4118.8 ng/g tissue. […] Oral dosing of compound of Formula I in mice resulted, as shown in other studies, in minimum systemic exposure and lack of consistent dose-dependent pharmacodynamic responses in the blood.
Percent inhibition of colonic pSTAT-3 was determined using log transformed data following outlier removal.

Like-named read-outs stand apart in the source and are kept apart here.

By inhibition is commonly meant the drop in the measured response relative to a control, in per cent. On to `CC(C)(O)CNC(=O)Cc1nc2cnc3[nH]ccc3c2n1[C@H]1CC[C@H](CC#N)CC1` [Compound of Formula I, 2-(1-((1r,4r)-4-(Cyanomethyl)cyclohexyl)-1,6-dihydroimidazo[4,5-d]pyrrolo[2,3-b]pyridin-2-yl)-N-(2-hydroxy-2-methylpropyl)acetamide], for which the inhibition at 10 mg/kg was 3.9% (Study S-1, oral 10 mg/kg) and 33.1% (Study S-2, oral 10 mg/kg). The inhibition at 25 mg/kg is, setting by setting: (Study S-1, oral 25 mg/kg) 25.8%; (Study S-2, oral 25 mg/kg) 61.2%. Further, the inhibition at 50 mg/kg runs as follows: (Study S-1, oral 50 mg/kg) 49.7%; (Study S-2, oral 50 mg/kg) 66.1%.
